Values after ≈ are worked out from the molar mass of the structure shown. Where two headings read alike, the source gives them in different places.
What was measured:
UKF-NB3 Par. cells = assay: MTT cytotoxicity test, parental neuroblastoma cells; type: cell-based; details: Homo sapiens, UKF-NB-3, 120 h, 5 days incubation
UKF-NB3 Dxr-R. cells = assay: MTT cytotoxicity test, doxorubicin-resistant neuroblastoma cells; type: cell-based, human; details: 5 days incubation
Description: To test the cytotoxicity of the doxorubicin nanoparticles (Dxr-NP) produced, as compared to a doxorubicin solution (Dxr-Soln) and a liposomal doxorubicin preparation (CAELYX®), the following cell lines were used:
doxorubicin-resistant cells of the human neuroblastoma cell line of the Universitätsklinikum Frankfurt (UKF-NB3 Dxr-R.)
To determine the cytotoxicity, the MTT test was used. In this test the viability of the cells in the presence of different concentrations of a substance is determined and is then compared with a cell control. From the results, the IC50 value (inhibitory concentration 50), i.e. the concentration of a substance at which 50% of the cells die, can be calculated. […] After dissolving the crystals with SDS/DMF solution, the colour intensity can be measured photometrically. […]
One column of the wells contained pure medium and corresponded to the blank value; in a second column the cells for the growth control (100% value) were cultivated. […] After a further incubation at 37° C. overnight, the colour crystals had dissolved completely, and the colour intensity in each well was measured photometrically at […]. By subtracting the blank value from the measured values and with reference to the control, the cell viability can be expressed in percent.

Work on `COc1cccc2c1C(=O)c1c(O)c3c(c(O)c1C2=O)C[C@@](O)(C(=O)CO)C[C@@H]3O[C@H]1C[C@H](N)[C@H](O)[C@H](C)O1` [Dxr-Soln, doxorubicin] yielded an IC50 (UKF-NB3 Par. cells) of 0.0016 µg/mL (≈ 0.00294 µM), an IC50 (UKF-NB3 Dxr-R. cells) of 0.0535 µg/mL (≈ 0.0984 µM) and an IC50 (UKF-NB3 Dxr-R. cells; Homo sapiens, UKF-NB-3, 120 h, read-out: IC50) of 0.0535 µg/mL (≈ 0.0984 µM).

Reference: patent publication US20090181090A1, “Protein-Based Carrier System for Overcoming Resistance in Tumour Cells” (priority 2005, published 2009)
